Reference: US7153822B2, “Compositions and methods for modulating connexin hemichannels” (Wyeth, priority 2002, dated 2006)
Square brackets hold non-standard residues; d marks the D form. Peptide text beside a SMILES is read from it. dHyp = O=C(O)[C@H]1C[C@H](O)CN1

Tests used:
[1] = tested on: cultured primary cardiomyocytes; test: stimulus-activation interval (conduction velocity) during glucose removal, patch clamp; format: cell-based, rat; details: 10 nM, superfusion 20 min after 15 min without glucose
Protocol: 1. Cell culture: In short the hearts from 20 neonate rats (age 1–2 days) are excised aseptically. The ventricles are isolated and cut into 4–6 pieces, which are digested in several steps in a Hanks buffered saline with trypsin and DNAse. The cells are then centrifuged and resuspended in MEM with 5% FCS. To eliminate non-muscle cells the suspension is preplated in petri dishes for 30 minutes at 37° C. The cells in suspension are then seeded onto collagen coated coverslips. Seeding density will be adjusted to give confluent cultures.
2. Electrophysiology: The cover slips with confluent cardiomyocytes are mounted in an open chamber on the stage of an inverted microscope and superfused with Dulbeccos phosphate buffered saline (PBS) by gravity driven flow at 1 ml/min, 37° C. The solution (PBS) contain (in mM): Na+ 152, K+ 4.2, Cl− 141.5, PO43− 9.5, Ca2+ 0.9, Mg2+ 0.5, pH 7.4. Patch clamp pipettes are pulled from 1.5 mm glass capillaries (GC150F-15, Harvard Apparatus) on a Sutter Flaming-Brown P-87 microelectrode puller and fire polished to a resistance of 4–6 MW. […]
The cells were perfused with control solution with 0.1 g/l BSA until a stable baseline in the stimulus-activation interval (SAI) was established. […] Date are expressed as percent change relative to baseline prior to removal of glucose from the media.

connexin hemi-channels = test: calcein dye uptake in cardiomyocytes under stress buffer (Example 6); format: cell-based, rat
Protocol: 1. Methods Ventricular myocytes were isolated from neonate rats by trypsin digestion and plated onto collagen-coated cover slips. After four days the myocytes formed confluent and synchronously beating sheets of cells. To measure dye uptake, cells were incubated in buffer containing 200 μM calcein for 30 minutes at room temperature. Then coverslips were thoroughly washed with control buffer and mounted in an open bath chamber and superfused with control buffer (RT). Cells were excited with 480 nm light by means of a Xenon lamp and a monochromator. Images of the fluorescence emitted at 510 nm were collected by a cooled CCD camera (Sensicam). Excitation control and image acquisition was controlled using Imaging workbench (Axon).
Under light microscopy three regions were placed over cardiomyocytes in an image. Then average fluorescence intensity was measured, and the procedure was repeated until 30 regions in 10 images had been measured. The average of these measurements were used as value for the given experimental condition, that is n=1. In each series one control incubation was performed and all experimental values are given as relative to this value.
Solutions: Control buffer (in mM): NaCl 136, KCl 4, MgCl2 0.8, CaCl2 1.8 HEPES 5, MES 5, Glucose 6, pH 7.3 Stress buffer (in mM): NaCl 136, KCl 8, MgCl2 0.8, CaCl2 1.8 HEPES 5, MES 5, Deoxy-glucose 10, pH 6.2

[2] = rat, in vivo, sc
Protocol: (§1) Compound 1 was delivered by an osmotic minipump (Alzet model 2ML4) that was inserted into the intraperitoneal (i.p.) cavity immediately prior to induction of the myocardial infarction. The pump was filled with vehicle (isotonic saline) or Compound 1 and primed at 37° C. for 24 hours prior to the operation. In order to ensure that the therapeutic plasma concentration was obtained already at the time of infarction, a loading dose of Compound 1 was given s.c. prior to ligation of the LAD.
(§2) After administration of the s.c. loading dose of Compound 1 and after i.p. insertion of the osmotic minipump, a left thoracotomy was performed, and the left anterior decending artery was ligated using a 6-0 silk suture. The thorax is closed in layers, and a negative pressure was induced in the pleural cavity to unfold the lungs. Sham-operated animals were subjected to the same procedure without ligation of the LAD. Postoperatively, the animal were allowed to recover in a heated cabinet at 30° C. with 50% oxygen until the next morning. To prevent dehydration during the recovery period, the rat was given 5 ml 5% glucose s.c. immediately after completion of surgery and another 5 ml 5% glucose at 4 p.m. To relieve postoperative pain, the rat was treated with buprenorphine (20 μg/100 g s.c. b.i.d.) and meloxicam (0.1 mg/100 g s.c. once daily) for three days after the myocardial infarction. […] Plasma concentrations of Compound 1 were measured by mass spectrometry following solid phase extraction.

[3] = tested on: human osteoblast cultures; details: dye transfer after Lucifer Yellow injection; cited from earlier work
[4] = tested on: osteoblastic rat osteosarcoma cell lines; details: dye transfer after Lucifer Yellow injection; cited from earlier work
in vivo = details: rat, ip
Protocol: as §1, §2

CC(=O)N[C@H](Cc1ccc(O)cc1)C(=O)N1CCC[C@@H]1C(=O)N1C[C@@H](O)C[C@@H]1C(=O)NCC(=O)N[C@H](C)C(=O)NCC(N)=O [Compound 1, Ac-D-Tyr-D-Pro-D-4Hyp-Gly-D-Ala-Gly-NH2] (Ac-[dY][dP][dHyp]G[dA]G-NH2)
stimulus-activation interval [1]: decreased the stimulus-activation interval
EC50 (connexin hemi-channels; 0.1 pM to 10 nM, sigmoidal function, read-out: ED50 for reduction of stress-induced calcein uptake): 3.3 ± 5.3 pM
average fluorescence intensity during maximal inhibition, above control (connexin hemi-channels; stress buffer (stress alone 36.2±4.18% higher)): 6.9±1.7 % above control
effect on uptake of calcein (connexin hemi-channels; stress, 0.1 pM to 10 nM): dose-dependently reduced the uptake of calcein
time to steady-state plasma level [2]: 3 min
reversal of hypoxia-induced decrease of calcium wave propagation [3]: completely reversed
reversal of hypoxia-induced decrease of calcium wave propagation [4]: completely reversed
level at time molar at 504 h (in vivo; 11 pmol/kg/min): 1.7 ± 0.4 nM
level at time molar at 504 h (in vivo; 110 pmol/kg/min): 5.7 ± 0.4 nM
level at time molar at 504 h (in vivo; 1100 pmol/kg/min): 93.7 ± 12.3 nM
